Here are results for four compounds from patent US11453703B2, “Heterotandem bicyclic peptide complexes” (BicycleTX Limited, priority 2018, dated 2022).

For data set [1], the target named is human EphA2 protein (Homo sapiens, UniProt P29317). Put plainly: EphA2 Biacore (SPR) binding assay. Particulars: biotinylated human EphA2, 25° C. How it is done: Biacore experiments were performed to determine ka (M^−1s^−1), kd (s^−1), KD (nM) values of heterotandem peptides binding to human EphA2 protein.
EphA2 were biotinylated with EZ-Link™ Sulfo-NHS-LC-Biotin for 1 hour in 4 mM sodium acetate, 100 mM NaCl, pH 5.4 with a 3× molar excess of biotin over protein. The degree of labelling was determined using a Fluorescence Biotin Quantification Kit (Thermo) after dialysis of the reaction mixture into PBS. For analysis of peptide binding, a Biacore T200 instrument was used with a XanTec CMD500D chip. Streptavidin was immobilized on the chip using standard amine-coupling chemistry at 25° C. with HBS-N (10 mM HEPES, 0.15 M NaCl, pH 7.4) as the running buffer. Briefly, the carboxymethyl dextran surface was activated with a 7 min injection of a 1:1 ratio of 0.4 M 1-ethyl-3-(3-dimethylaminopropyl) carbodiimide hydrochloride (EDC)/0.1 M N-hydroxy succinimide (NHS) at a flow rate of 10 it/min. For capture of streptavidin, the protein was diluted to 0.2 mg/ml in 10 mM sodium acetate (pH 4.5) and captured by injecting 120 μl onto the activated chip surface. Residual activated groups were blocked with a 7 min injection of 1 M ethanolamine (pH 8.5):HBS-N (1:1). Buffer was changed to PBS/0.05% Tween 20 and biotinylated EphA2 was captured to a level of 500-1500 RU using a dilution of protein to 0.2 μM in buffer. A dilution series of the peptides was prepared in this buffer with a final DMSO concentration of 0.5% with a top peptide concentration was 50 or 100 nM and 6 further 2-fold dilutions. The SPR analysis was run at 25° C. at a flow rate of 90 μl/min with 60 seconds association and 900-1200 seconds dissociation. Data were corrected for DMSO excluded volume effects. All data were double-referenced for blank injections and reference surface using standard processing procedures and data processing and kinetic fitting were performed using Scrubber software, version 2.0c (BioLogic Software). Data were fitted using simple 1:1 binding model allowing for mass transport effects where appropriate.
For orientation: In SPR one partner is held on a chip, and binding of the other changes the refractive index at the surface.

For data set [2], the target named is T1, CD137 (Homo sapiens, UniProt Q07011). Put plainly: CD137 Biacore (SPR) binding assay. On the set-up: purchased R&D systems. Particulars: biotinylated human CD137, 25° C. In short, it runs like this:
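Biotinylated human CD137 captured (270-1500 RU) on streptavidin-coupled dextran chip; peptides up to 500 nM in PBS/0.05% Tween 20, 0.5% DMSO, at 25°C, 60 s association, 900 s dissociation. Double-referenced data fitted to 1:1 binding model, with mass transport where appropriate.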

Data set [3] concerns the target T1, CD137. Put plainly: CD137 reporter assay, co-culture with EphA2 tumour cells. Particulars: tumour target EphA2, co-culture with SC-OV-3, 6 h. On the set-up: host or cells: Jurkat reporter cells. Format: cell-based. The essentials:
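Jurkat CD137 reporter cells co-cultured with tumour cells and serially diluted test articles in RPMI-1640 + 1% FBS, 6 h at 37 °C, 5% CO2. Luminescence read after Bio-Glo; fold change over cells-only background fitted log(agonist) vs response for EC50 (nM) and maximal fold induction.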
For orientation: Reporter assays use an easily measured gene product as a stand-in for the process of interest.

A word on the Kd: it is the constant that tells how readily two partners part at equilibrium. What is called EC50 is the concentration that produces a half-maximal response.

Sequence of human EphA2 protein (P29317 24-976): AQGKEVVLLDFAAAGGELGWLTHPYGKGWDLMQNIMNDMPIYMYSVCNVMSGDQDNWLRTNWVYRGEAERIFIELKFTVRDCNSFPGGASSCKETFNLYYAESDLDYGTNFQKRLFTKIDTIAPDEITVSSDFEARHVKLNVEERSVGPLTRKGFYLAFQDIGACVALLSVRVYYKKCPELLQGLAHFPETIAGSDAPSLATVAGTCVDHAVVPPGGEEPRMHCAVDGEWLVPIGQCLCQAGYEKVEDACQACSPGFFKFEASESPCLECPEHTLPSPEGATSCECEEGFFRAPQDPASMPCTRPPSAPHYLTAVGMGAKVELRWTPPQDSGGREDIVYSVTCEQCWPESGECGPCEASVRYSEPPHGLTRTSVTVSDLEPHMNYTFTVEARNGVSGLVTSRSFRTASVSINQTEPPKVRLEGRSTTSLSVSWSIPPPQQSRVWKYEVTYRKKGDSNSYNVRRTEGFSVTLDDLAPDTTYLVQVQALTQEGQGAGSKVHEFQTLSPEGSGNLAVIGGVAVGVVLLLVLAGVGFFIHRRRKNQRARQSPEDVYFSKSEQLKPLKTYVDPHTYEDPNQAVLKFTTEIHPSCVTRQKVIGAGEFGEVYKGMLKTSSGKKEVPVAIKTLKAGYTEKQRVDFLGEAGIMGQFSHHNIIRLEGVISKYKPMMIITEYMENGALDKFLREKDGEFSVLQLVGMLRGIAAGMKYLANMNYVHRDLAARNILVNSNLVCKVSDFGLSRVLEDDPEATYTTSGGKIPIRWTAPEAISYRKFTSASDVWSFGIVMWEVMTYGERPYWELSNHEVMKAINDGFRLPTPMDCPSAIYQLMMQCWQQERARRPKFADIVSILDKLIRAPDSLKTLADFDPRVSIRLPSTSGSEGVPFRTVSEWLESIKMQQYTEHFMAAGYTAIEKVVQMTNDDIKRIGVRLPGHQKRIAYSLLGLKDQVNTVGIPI
T1 sequence (Q07011 24-255): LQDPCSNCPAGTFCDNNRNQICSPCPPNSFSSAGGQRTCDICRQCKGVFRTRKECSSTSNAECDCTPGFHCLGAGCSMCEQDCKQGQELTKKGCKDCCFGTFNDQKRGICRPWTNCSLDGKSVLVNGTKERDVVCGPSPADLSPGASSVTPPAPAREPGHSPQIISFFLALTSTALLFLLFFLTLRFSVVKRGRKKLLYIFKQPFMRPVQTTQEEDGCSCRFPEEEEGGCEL

For the compound `CCCC[C@@H]1NC(=O)[C@H](Cc2ccc(O)cc2)NC(=O)[C@@H]2CCCN2C(=O)[C@H](CC(=O)O)NC(=O)[C@H](C)NC(=O)[C@H](Cc2ccccc2)NC(=O)[C@@H]2CSCCC(=O)N3CN(CN(C3)C(=O)CCSC[C@@H](C(=O)N[C@@H](CNC(=O)CCc3cn(CCCNC(=O)CN(C)C(=O)CN(C)C(=O)CN(C)C(=O)CN(C)C(=O)CN(C)C(=O)CN(C)C(=O)CN(C)C(=O)CN(C)C(=O)CN(C)C(=O)CN(C)C(=O)COCCOCCOCCOCCOCCOCCOCCOCCOCCOCCNC(=O)NCCC(=O)N(C)CC(=O)N(C)CC(=O)N(C)CC(=O)N(C)CC(=O)N(C)CC(=O)N(C)CC(=O)N(C)CC(=O)N(C)CC(=O)N(C)CC(=O)N(C)CC(=O)N[C@@H](C)C(=O)N[C@@H](CCCCNC(=N)N)C(=O)N[C@@H](CC(=O)O)C(=O)N[C@H]4CSCCC(=O)N5CN6CN(C5)C(=O)CCSC[C@H](NC(=O)[C@H](CC(C)C)NC(=O)[C@@H]5CCCN5C(=O)[C@H](CC(N)=O)NC(=O)[C@H](C(C)C)NC(=O)[C@H](CC(C)C)NC(=O)[C@@H]5C[C@@H](O)CN5C4=O)C(=O)N[C@@H](CC(C)C)C(=O)N[C@@H](Cc4c[nH]cn4)C(=O)N4CCC[C@H]4C(=O)N[C@H](CC(=O)O)C(=O)N[C@@H](Cc4c[nH]c5ccccc45)C(=O)N[C@@H](CCCCNC(=N)N)C(=O)N[C@H](C(N)=O)CSCCC6=O)nn3)C(N)=O)NC1=O)C(=O)CCSC[C@H](NC(=O)[C@H](C)NC(C)=O)C(=O)N[C@@H]([C@@H](C)CC)C(=O)N[C@@H](CCC(=O)O)C(=O)N[C@@H](CCC(=O)O)C(=O)NCC(=O)N[C@@H](CCC(N)=O)C(=O)N[C@@H](Cc1ccc(O)cc1)C(=O)N2` [BCY9656], binding in data set [1] was put at a Kd of 0.75 nM. Further, in data set [2], the Kd stood at 159 nM. In data set [3], the midpoint of the response, the EC50, lay at 1.1 nM and the “Fold Induction over Background” value is 3 fold.

As for `CCCC[C@@H]1NC(=O)[C@H](Cc2ccc(O)cc2)NC(=O)[C@@H]2CCCN2C(=O)[C@H](CC(=O)O)NC(=O)[C@H](C)NC(=O)[C@H](Cc2ccccc2)NC(=O)[C@@H]2CSCCC(=O)N3CN(CN(C3)C(=O)CCSC[C@@H](C(=O)N[C@@H](CNC(=O)CCc3cn(CCCNC(=O)CN(C)C(=O)CN(C)C(=O)CN(C)C(=O)CN(C)C(=O)CN(C)C(=O)CN(C)C(=O)CN(C)C(=O)CN(C)C(=O)CN(C)C(=O)CN(C)C(=O)CN(C)C(=O)CN(C)C(=O)CN(C)C(=O)CN(C)C(=O)CN(C)C(=O)COCCOCCOCCOCCOCCNC(=O)NCCC(=O)N(C)CC(=O)N(C)CC(=O)N(C)CC(=O)N(C)CC(=O)N(C)CC(=O)N(C)CC(=O)N(C)CC(=O)N(C)CC(=O)N(C)CC(=O)N(C)CC(=O)N[C@@H](C)C(=O)N[C@@H](CCCCNC(=N)N)C(=O)N[C@@H](CC(=O)O)C(=O)N[C@H]4CSCCC(=O)N5CN6CN(C5)C(=O)CCSC[C@H](NC(=O)[C@H](CC(C)C)NC(=O)[C@@H]5CCCN5C(=O)[C@H](CC(N)=O)NC(=O)[C@H](C(C)C)NC(=O)[C@H](CC(C)C)NC(=O)[C@@H]5C[C@@H](O)CN5C4=O)C(=O)N[C@@H](CC(C)C)C(=O)N[C@@H](Cc4c[nH]cn4)C(=O)N4CCC[C@H]4C(=O)N[C@H](CC(=O)O)C(=O)N[C@@H](Cc4c[nH]c5ccccc45)C(=O)N[C@@H](CCCCNC(=N)N)C(=O)N[C@H](C(N)=O)CSCCC6=O)nn3)C(N)=O)NC1=O)C(=O)CCSC[C@H](NC(=O)[C@H](C)NC(C)=O)C(=O)N[C@@H]([C@@H](C)CC)C(=O)N[C@@H](CCC(=O)O)C(=O)N[C@@H](CCC(=O)O)C(=O)NCC(=O)N[C@@H](CCC(N)=O)C(=O)N[C@@H](Cc1ccc(O)cc1)C(=O)N2` [BCY9657], the affinity in data set [1], expressed as Kd, was 1.1 nM. This compound came in with a Kd in data set [2] of 256 nM. Moreover, in data set [3], the EC50 came to 9 nM and the “Fold Induction over Background” value is reported as 26 fold.

`CCCC[C@@H]1NC(=O)[C@H](Cc2ccc(O)cc2)NC(=O)[C@@H]2CCCN2C(=O)[C@H](CC(=O)O)NC(=O)[C@H](C)NC(=O)[C@H](Cc2ccccc2)NC(=O)[C@@H]2CSCCC(=O)N3CN(CN(C3)C(=O)CCSC[C@@H](C(=O)N[C@@H](CNC(=O)CCc3cn(CCCNC(=O)CN(C)C(=O)CN(C)C(=O)CN(C)C(=O)CN(C)C(=O)CN(C)C(=O)COCCOCCOCCOCCOCCNC(=O)NCCC(=O)N(C)CC(=O)N(C)CC(=O)N(C)CC(=O)N(C)CC(=O)N(C)CC(=O)N(C)CC(=O)N(C)CC(=O)N(C)CC(=O)N(C)CC(=O)N(C)CC(=O)N[C@@H](C)C(=O)N[C@@H](CCCCNC(=N)N)C(=O)N[C@@H](CC(=O)O)C(=O)N[C@H]4CSCCC(=O)N5CN6CN(C5)C(=O)CCSC[C@H](NC(=O)[C@H](CC(C)C)NC(=O)[C@@H]5CCCN5C(=O)[C@H](CC(N)=O)NC(=O)[C@H](C(C)C)NC(=O)[C@H](CC(C)C)NC(=O)[C@@H]5C[C@@H](O)CN5C4=O)C(=O)N[C@@H](CC(C)C)C(=O)N[C@@H](Cc4c[nH]cn4)C(=O)N4CCC[C@H]4C(=O)N[C@H](CC(=O)O)C(=O)N[C@@H](Cc4c[nH]c5ccccc45)C(=O)N[C@@H](CCCCNC(=N)N)C(=O)N[C@H](C(N)=O)CSCCC6=O)nn3)C(N)=O)NC1=O)C(=O)CCSC[C@H](NC(=O)[C@H](C)NC(C)=O)C(=O)N[C@@H]([C@@H](C)CC)C(=O)N[C@@H](CCC(=O)O)C(=O)N[C@@H](CCC(=O)O)C(=O)NCC(=O)N[C@@H](CCC(N)=O)C(=O)N[C@@H](Cc1ccc(O)cc1)C(=O)N2` [BCY9658]: the Kd in data set [1] turned out to be 1.9 nM; in data set [2], 152 nM. For the same compound, the EC50 in data set [3] worked out at 6.2 nM. In addition, the “Fold Induction over Background” value in data set [3] is 11 fold.

For `CCCC[C@@H]1NC(=O)[C@H](Cc2ccc(O)cc2)NC(=O)[C@@H]2CCCN2C(=O)[C@H](CC(=O)O)NC(=O)[C@H](C)NC(=O)[C@H](Cc2ccccc2)NC(=O)[C@@H]2CSCCC(=O)N3CN(CN(C3)C(=O)CCSC[C@@H](C(=O)N[C@@H](CNC(=O)CCc3cn(CCOCCOCCOCCOCCOCCNC(=O)NCCC(=O)N(C)CC(=O)N(C)CC(=O)N(C)CC(=O)N(C)CC(=O)N(C)CC(=O)N(C)CC(=O)N(C)CC(=O)N(C)CC(=O)N(C)CC(=O)N(C)CC(=O)N[C@@H](C)C(=O)N[C@@H](CCCCNC(=N)N)C(=O)N[C@@H](CC(=O)O)C(=O)N[C@H]4CSCCC(=O)N5CN6CN(C5)C(=O)CCSC[C@H](NC(=O)[C@H](CC(C)C)NC(=O)[C@@H]5CCCN5C(=O)[C@H](CC(N)=O)NC(=O)[C@H](C(C)C)NC(=O)[C@H](CC(C)C)NC(=O)[C@@H]5C[C@@H](O)CN5C4=O)C(=O)N[C@@H](CC(C)C)C(=O)N[C@@H](Cc4c[nH]cn4)C(=O)N4CCC[C@H]4C(=O)N[C@H](CC(=O)O)C(=O)N[C@@H](Cc4c[nH]c5ccccc45)C(=O)N[C@@H](CCCCNC(=N)N)C(=O)N[C@H](C(N)=O)CSCCC6=O)nn3)C(N)=O)NC1=O)C(=O)CCSC[C@H](NC(=O)[C@H](C)NC(C)=O)C(=O)N[C@@H]([C@@H](C)CC)C(=O)N[C@@H](CCC(=O)O)C(=O)N[C@@H](CCC(=O)O)C(=O)NCC(=O)N[C@@H](CCC(N)=O)C(=O)N[C@@H](Cc1ccc(O)cc1)C(=O)N2` [BCY9659], binding in data set [1] was put at a Kd of 1.03 nM. The Kd in data set [2] is 88.1 nM. Besides, in data set [3], the EC50 amounted to 9.9 nM and the “Fold Induction over Background” value was determined as 7 fold.
